Laboratory results published in patent US8604021B2, “Substituted arylamine compounds and methods of treatment” (priority 2005, dated 2013).

How the values were obtained:
[1] = Food intake and body weight in rats, sub-chronic dosing; format: in vivo; conditions: sub-chronic dosing 10 and 30 mg/kg qd, i.p.
α1 = assay: Compound Binding Profiles: α1; conditions: * = Estimated IC50
D4 = biological target: T1, D4 (Homo sapiens, UniProt P21917); assay: Compound Binding Profiles: D4; conditions: read-out: D4 binding class
T1 sequence (P21917 1-419): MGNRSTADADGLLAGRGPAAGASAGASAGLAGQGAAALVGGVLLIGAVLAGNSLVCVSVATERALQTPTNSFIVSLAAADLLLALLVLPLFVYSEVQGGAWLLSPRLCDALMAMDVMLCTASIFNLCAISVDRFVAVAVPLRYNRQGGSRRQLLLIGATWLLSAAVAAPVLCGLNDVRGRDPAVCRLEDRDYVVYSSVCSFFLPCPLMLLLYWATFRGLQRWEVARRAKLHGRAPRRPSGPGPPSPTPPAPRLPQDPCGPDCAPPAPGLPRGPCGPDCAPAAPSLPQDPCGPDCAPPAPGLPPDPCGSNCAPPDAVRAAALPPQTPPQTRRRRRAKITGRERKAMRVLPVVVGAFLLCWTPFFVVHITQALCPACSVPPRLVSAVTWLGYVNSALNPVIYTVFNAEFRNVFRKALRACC

5HT2C = biological target: T2, 5HT2C (Homo sapiens, UniProt P28335); assay: Compound Binding Profiles: 5HT2C; conditions: * = Estimated IC50
T2 sequence (P28335 33-458): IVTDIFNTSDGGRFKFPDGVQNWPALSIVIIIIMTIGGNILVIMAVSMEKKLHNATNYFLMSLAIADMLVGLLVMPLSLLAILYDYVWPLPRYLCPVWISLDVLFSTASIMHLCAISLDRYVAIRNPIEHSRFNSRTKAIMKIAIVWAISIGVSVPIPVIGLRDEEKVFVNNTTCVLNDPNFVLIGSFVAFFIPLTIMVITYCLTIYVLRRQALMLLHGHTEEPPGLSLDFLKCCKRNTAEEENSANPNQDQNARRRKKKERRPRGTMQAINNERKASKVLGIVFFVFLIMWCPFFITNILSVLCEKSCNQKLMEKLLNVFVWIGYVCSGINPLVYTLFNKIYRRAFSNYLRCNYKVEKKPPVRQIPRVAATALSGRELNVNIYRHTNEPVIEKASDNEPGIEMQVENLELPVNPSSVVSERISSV

CYP2D6 = CYP2D6 (Homo sapiens, UniProt P10635); assay: CYP inhibition CYP2D6
Sequence of CYP2D6 (P10635 whole entry): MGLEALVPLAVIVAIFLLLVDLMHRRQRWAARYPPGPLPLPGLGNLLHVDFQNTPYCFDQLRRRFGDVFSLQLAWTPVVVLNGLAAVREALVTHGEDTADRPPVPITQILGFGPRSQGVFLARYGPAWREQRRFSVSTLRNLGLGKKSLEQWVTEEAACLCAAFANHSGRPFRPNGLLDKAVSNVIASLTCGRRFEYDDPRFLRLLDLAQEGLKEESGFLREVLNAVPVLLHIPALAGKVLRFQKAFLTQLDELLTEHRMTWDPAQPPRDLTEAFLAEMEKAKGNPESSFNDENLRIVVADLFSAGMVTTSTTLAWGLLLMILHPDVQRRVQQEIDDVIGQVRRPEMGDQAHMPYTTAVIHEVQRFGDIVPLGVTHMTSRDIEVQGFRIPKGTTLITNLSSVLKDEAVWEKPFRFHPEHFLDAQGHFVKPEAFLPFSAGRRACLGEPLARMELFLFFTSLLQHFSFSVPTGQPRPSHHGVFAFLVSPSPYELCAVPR

α2 = assay: Compound Binding Profiles: α2; conditions: * = Estimated IC50
D2 = D2 (Homo sapiens, UniProt P14416); assay: Compound Binding Profiles: D2; conditions: * = Estimated IC50
Sequence of D2 (P14416 whole entry): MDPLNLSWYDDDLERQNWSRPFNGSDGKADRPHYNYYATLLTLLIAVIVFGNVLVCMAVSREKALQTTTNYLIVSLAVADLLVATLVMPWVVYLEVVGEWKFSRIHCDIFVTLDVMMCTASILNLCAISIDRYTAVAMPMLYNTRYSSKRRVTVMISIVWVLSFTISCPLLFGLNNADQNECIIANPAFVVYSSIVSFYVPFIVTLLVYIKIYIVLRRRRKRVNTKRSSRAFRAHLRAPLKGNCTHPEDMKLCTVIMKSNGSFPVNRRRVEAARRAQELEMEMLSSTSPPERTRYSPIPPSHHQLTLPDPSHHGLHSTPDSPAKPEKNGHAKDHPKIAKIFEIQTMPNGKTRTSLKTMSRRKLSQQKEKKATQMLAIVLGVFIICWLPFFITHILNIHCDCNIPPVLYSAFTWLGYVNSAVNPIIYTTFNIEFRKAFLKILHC

M1 = biological target: T3, M1 (Homo sapiens, UniProt P11229); assay: Compound Binding Profiles: M1; conditions: * = Estimated IC50
T3 sequence (P11229 1-460): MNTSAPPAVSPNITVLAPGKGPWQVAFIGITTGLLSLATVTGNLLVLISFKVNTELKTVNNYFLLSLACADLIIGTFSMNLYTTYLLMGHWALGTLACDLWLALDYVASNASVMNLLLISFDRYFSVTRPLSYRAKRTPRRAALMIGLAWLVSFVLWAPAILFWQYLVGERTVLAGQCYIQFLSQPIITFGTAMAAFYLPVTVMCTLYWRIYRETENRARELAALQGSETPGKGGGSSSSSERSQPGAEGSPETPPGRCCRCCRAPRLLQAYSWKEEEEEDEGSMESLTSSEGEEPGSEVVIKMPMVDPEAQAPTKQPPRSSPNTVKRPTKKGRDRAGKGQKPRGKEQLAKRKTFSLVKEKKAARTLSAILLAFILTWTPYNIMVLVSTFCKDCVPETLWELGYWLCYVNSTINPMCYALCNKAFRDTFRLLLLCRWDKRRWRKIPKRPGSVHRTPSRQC

CYP3A4 = CYP3A4 (Homo sapiens, UniProt P08684); assay: CYP inhibition CYP3A4
Sequence of CYP3A4 (P08684 whole entry): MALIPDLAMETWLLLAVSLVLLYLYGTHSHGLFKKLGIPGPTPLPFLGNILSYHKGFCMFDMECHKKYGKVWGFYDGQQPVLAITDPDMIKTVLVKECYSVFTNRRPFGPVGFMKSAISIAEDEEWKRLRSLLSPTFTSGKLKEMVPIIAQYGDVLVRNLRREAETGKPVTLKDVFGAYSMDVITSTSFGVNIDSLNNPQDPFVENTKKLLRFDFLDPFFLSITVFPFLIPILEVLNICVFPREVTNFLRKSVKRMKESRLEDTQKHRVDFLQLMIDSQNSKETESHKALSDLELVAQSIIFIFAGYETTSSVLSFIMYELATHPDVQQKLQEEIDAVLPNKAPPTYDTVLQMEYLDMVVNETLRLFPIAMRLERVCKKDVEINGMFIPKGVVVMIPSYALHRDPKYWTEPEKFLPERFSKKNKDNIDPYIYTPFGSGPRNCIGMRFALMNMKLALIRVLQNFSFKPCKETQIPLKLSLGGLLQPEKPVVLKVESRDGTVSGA

[2] = Food intake and body weight in mice, sub-chronic dosing; format: in vivo; conditions: sub-chronic dosing 10 and 30 mg/kg qd, i.p.
[3] = Oral pharmacokinetics in rodents; conditions: in vivo, oral administration 5 mg/kg
CYP2C9 = CYP2C9 (Homo sapiens, UniProt P11712); assay: CYP inhibition CYP2C9
Sequence of CYP2C9 (P11712 whole entry): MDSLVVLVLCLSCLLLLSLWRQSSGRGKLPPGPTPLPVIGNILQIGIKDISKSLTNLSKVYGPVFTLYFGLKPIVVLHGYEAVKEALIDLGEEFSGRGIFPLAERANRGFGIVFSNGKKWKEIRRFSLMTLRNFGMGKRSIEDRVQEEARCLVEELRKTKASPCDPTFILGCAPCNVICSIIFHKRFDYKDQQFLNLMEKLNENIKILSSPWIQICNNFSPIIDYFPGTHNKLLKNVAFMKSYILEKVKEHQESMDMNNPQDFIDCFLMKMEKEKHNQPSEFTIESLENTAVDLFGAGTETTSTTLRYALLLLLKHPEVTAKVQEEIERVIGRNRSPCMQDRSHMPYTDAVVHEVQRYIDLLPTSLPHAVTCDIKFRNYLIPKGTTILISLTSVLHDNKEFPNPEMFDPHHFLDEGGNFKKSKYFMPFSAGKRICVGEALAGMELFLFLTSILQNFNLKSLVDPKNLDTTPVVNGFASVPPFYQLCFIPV

H1 = H1 (Homo sapiens, UniProt P35367); assay: Compound Binding Profiles: H1; conditions: * = Estimated IC50
Sequence of H1 (P35367 whole entry): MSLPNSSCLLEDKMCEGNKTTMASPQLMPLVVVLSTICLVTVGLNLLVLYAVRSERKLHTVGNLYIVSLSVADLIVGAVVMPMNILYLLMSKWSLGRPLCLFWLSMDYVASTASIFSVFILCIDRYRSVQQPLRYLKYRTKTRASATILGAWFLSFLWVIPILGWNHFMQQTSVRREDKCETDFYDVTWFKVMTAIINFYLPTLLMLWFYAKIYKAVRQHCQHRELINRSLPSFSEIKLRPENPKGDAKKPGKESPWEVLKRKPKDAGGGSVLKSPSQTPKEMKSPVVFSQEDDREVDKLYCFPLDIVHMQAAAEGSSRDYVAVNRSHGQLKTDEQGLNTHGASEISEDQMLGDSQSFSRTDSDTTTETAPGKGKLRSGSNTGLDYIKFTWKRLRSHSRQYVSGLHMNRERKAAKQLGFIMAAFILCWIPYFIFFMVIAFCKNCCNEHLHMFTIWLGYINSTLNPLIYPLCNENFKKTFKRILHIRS

[4] = Oral pharmacokinetics in dogs; conditions: dog, in vivo, oral administration 5 mg/kg
5HT2A = 5HT2A (Homo sapiens, UniProt P28223); assay: Compound Binding Profiles: 5HT2A; conditions: * = Estimated IC50
Sequence of 5HT2A (P28223 whole entry, species assumed): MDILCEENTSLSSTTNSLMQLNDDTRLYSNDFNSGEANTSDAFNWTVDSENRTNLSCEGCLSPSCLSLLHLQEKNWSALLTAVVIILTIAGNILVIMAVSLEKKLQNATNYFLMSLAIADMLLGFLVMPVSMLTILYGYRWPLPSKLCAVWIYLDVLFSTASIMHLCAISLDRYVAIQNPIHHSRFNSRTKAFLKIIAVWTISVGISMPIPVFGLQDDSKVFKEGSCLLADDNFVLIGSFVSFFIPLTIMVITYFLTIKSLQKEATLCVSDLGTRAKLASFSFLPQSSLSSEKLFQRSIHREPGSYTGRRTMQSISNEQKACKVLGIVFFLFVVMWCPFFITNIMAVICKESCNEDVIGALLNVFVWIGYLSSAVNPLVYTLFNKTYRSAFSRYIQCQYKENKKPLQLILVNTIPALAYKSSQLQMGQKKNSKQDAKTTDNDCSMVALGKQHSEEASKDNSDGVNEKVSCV

COc1cc(Cl)cc(C(C)Nc2cc(N3CCNCC3)ccc2S(C)(=O)=O)c1OC.Cl (stereo not shown) [Compound A, [1-(5-Chloro-2,3-dimethoxy-phenyl)-ethyl]-(2-methanesulfonyl-5-piperazin-1-yl-phenyl)-amine hydrochloride]
body weight [1]: significant reduction | food intake [1]: significant reduction | IC50 (α1): 24 µM | Ki (D4): 100 to 1000 nM | IC50 (5HT2C): 3.8 µM | IC50 (CYP2D6): 7.81 µM | IC50 (α2): 23 µM | IC50 (D2): 9 µM | IC50 (M1): 3.4 µM | IC50 (CYP3A4): > 7.5 µM | body weight [2]: significant reduction | food intake [2]: significant reduction | bioavailability [3]: 38% | half-life [3]: 90 min | IC50 (CYP2C9): > 7.5 µM | IC50 (H1): 22 µM | bioavailability ([4]; read-out: bioavailability F): 81% | half-life ([4]; read-out: half-life T1/2 (converted)): 300 min | IC50 (5HT2A): 2500 nM
